Patent publication US7186825B2, “Conformationally restricted polyamine analogs as disease therapies” (Cellgate, Inc., priority 1999, dated 2007)
Where two headings read alike, the source gives them in different places.

Assays:
Type in all cases: cell-based
[1] = test system: human prostate cancer cells PC3; experiment: MTT assay, survival/growth of cultured human prostate cancer cells PC3; conditions: for EC50: figure legends, survival of cultured PC3 cells, MTT, six days after drug treatment, read-out: ED50 (the source's name)
Experimental: (§1) Human breast cancer cell line MCF7 was grown in Richter's Improved Modified Eagle's Medium supplemented with 10% fetal bovine serum (FBS) and 2.2 g/L sodium bicarbonate. Human brain tumor cell line U251 MG-NCI was grown in Dulbecco's Modified Eagle's Medium supplemented with 10% FBS. Human lung cancer cell line A549 was grown in Ham's F-12K medium (Cellgro, Mediatech, Inc., VA), supplemented with 10% FBS and 2 mM L-glutamine. Human colon cancer cell line HT29 was cultured in McCoy's 5A medium (Gibco, BRL, Gaithersburg, Md.) supplemented with 10% FBS. Human prostate cancer cell lines PC-3, LNCAP and DuPro were grown in RPMI 1640 Medium (Cellgro, Mediatech, Inc., VA) supplemented with 10% FBS. Another human prostate cancer cell line DU145 was grown in Dulbecco's Modified Eagle's Medium (Gibco, BRL, Gaithersburg, Md.) supplemented with 5% FBS. The A549, MCF7, PC3, LNCAP and DuPro cell lines were cultured in 100 units/mL penicillin and 100 μg/mL streptomycin. HT29 and U251MG cell lines were grown in 50 μg/mL gentamycin (Gibco, BRL, Gaithersburg, Md.). DU145 cell line was maintained in 1% antibitic-antimycotic solution (Sigma, St. Louis, Mo.). The cell cultures were maintained at 37° C. in 5% CO2/95% humidified air. DuPro cells were obtained from M. Eileen Dolan, University of Chicago. All other cells are available from the American Type Culture Collection, Rockville, Md.
(§2) A conventional MTT assay was used to evaluate percent cell survival. Exponentially growing monolayer cells were plated in 96-well plates at a density of 500 cells per well and allowed to grow for 24 hours. Serial dilutions of the drugs were added to the wells. Six days after drug treatment, 25 μl of MTT solution (5 mg/ml) was added to each well and incubated for 4 hours at 37° C. Then 100 μl of lysis buffer (20% sodium dodecyl sulfate, 50% DMF, and 0.8% acetic acid, pH 4.7) was added to each well and incubated for an additional 22 hours. A microplate reader (“EMAX”-brand, Molecular Devices, Sunnyvale, Calif.) set at 570 nm was used to determine the optical density of the cultures. Results are expressed as a ratio of the optical density in drug-treated wells to the optical density in wells treated with vehicle only.
(§3) Using the protocols of Example 2, the porphyrin-polyamine conjugates were tested for activity in vitro in various cancer cell lines.

[2] = test system: human prostate cancer cells DU145; experiment: MTT assay, survival/growth of cultured human prostate cancer cells DU145; conditions: for EC50: figure legends, survival of cultured DU145 cells, MTT, six days after drug treatment, read-out: ED50 (the source's name); for IC50: DU-145
Experimental: as §1, §2, §3

[3] = test system: human colon cancer cells HT29; experiment: MTT assay, survival/growth of cultured human colon cancer cells HT29; conditions: for EC50: figure legends, survival of cultured HT29 cells, MTT, six days after drug treatment, read-out: ED50 (the source's name); for IC50: read-out: concentration needed for 50% growth inhibition (ID50), Table 3, HT-29
Experimental: (§4) As shown in Table 3 and FIGS. 1–32, several novel conformationally restricted polyamine analogs were tested for anti-proliferative properties against cancer cells.
as §1, §2

[4] = test system: human lung cancer cells A549; experiment: MTT assay, survival/growth of cultured human lung cancer cells A549; conditions: for EC50: figure legends, survival of cultured A549 cells, MTT, six days after drug treatment, read-out: ED50 (the source's name); for IC50: read-out: concentration needed for 50% growth inhibition (ID50); for IC50 / concentration needed for 50% growth inhibition (ID50): Table 3, A549
Experimental: as §4, §1, §2

[5] = test system: human breast cancer cells MCF7; experiment: MTT assay, survival/growth of cultured human breast cancer cells MCF7; conditions: for EC50: figure legends, survival of cultured MCF7 cells, MTT, six days after drug treatment, read-out: ED50 (the source's name); for IC50: read-out: concentration needed for 50% growth inhibition (ID50), Table 3, MCF7
Experimental: as §4, §1, §2

[6] = test system: human brain tumor cells U251 MG NCI; experiment: MTT assay, survival/growth of cultured human brain tumor cells U251 MG NCI; conditions: for EC50: figure legends, survival of cultured U251 MG NCI cells, MTT, six days after drug treatment, read-out: ED50 (the source's name); for IC50: Table 3, U251MG
Experimental: as §1, §2

[7] = test system: human prostate cancer cells DUPRO; experiment: MTT assay, survival/growth of cultured human prostate cancer cells DUPRO
Experimental: as §1, §2, §3

[8] = Homo sapiens, read-out: concentration needed for 50% growth inhibition (ID50), Table 3, PC-3
[9] = Homo sapiens, read-out: concentration needed for 50% growth inhibition (ID50), Table 3
[10] = Homo sapiens, U-251, read-out: concentration needed for 50% growth inhibition (ID50)
[11] = read-out: concentration needed for 50% growth inhibition (ID50), Table 3, PC-3
[12] = read-out: concentration needed for 50% growth inhibition (ID50), Table 3
[13] = read-out: concentration needed for 50% growth inhibition (ID50)
[14] = Homo sapiens, 144 h, figure legends, survival of cultured DUPRO cells, MTT, six days after drug treatment, read-out: ED50 (the source's name)
[15] = Homo sapiens, read-out: concentration needed for 50% growth inhibition (ID50), Table 3, DUPRO

## CCNCCCNCCCCNCCCNCC [BE-343, N1,N12-bis(ethyl) spermine, reference compound]
[1]
  EC50: 0.24 µM
[2]
  EC50: 44 nM
[3]
  EC50: 0.6 µM
[4]
  EC50: 0.2 µM
[5]
  EC50: 0.5 µM
[6]
  EC50: 0.14 µM

## CNCCCNC[C@H]1CC[C@H]1CNCCCNC [SL-11090]
[1]; [8]
  IC50: > 31.2 µM
[2]; [9]
  IC50: > 31.2 µM
[3]; Homo sapiens
  IC50: > 31.2 µM
[4]; Homo sapiens
  IC50: > 31.2 µM
[5]; Homo sapiens
  IC50: > 31.2 µM
[6]; [10]
  IC50: > 31.2 µM

## CCNCCCNCC#CCNCCCNCC [SL-11091]
[1]; Homo sapiens, PC-3, 144 h
  EC50: > 31.2 µM
[1]; [8]
  IC50: > 31.2 µM
[2]; Homo sapiens, DU-145, 144 h
  EC50: 4330 nM
[2]; [9]
  IC50: 1.33 µM
[3]; Homo sapiens, HT-29, 144 h
  EC50: > 31.2 µM
[3]; Homo sapiens
  IC50: > 31.2 µM
[4]; Homo sapiens, 144 h
  EC50: > 31.2 µM
[4]; Homo sapiens
  IC50: > 31.2 µM
[5]; Homo sapiens, 144 h
  EC50: > 31.2 µM
[5]; Homo sapiens
  IC50: > 31.2 µM
[6]; Homo sapiens, U-251, 144 h
  EC50: > 31.2 µM
[6]; [10]
  IC50: > 31.2 µM

## CNCCCNCC#CCNCCCNC [SL-11092]
[1]; [8]
  IC50: > 31.2 µM
[2]; [9]
  IC50: 1.7 µM
[3]; Homo sapiens
  IC50: > 31.2 µM
[4]; Homo sapiens
  IC50: > 31.2 µM
[5]; Homo sapiens
  IC50: > 31.2 µM
[6]; [10]
  IC50: > 31.2 µM

## CCNCCCNCc1ccccc1CNCCCNCC [SL-11094]
[1]; [11]
  IC50: > 31.2 µM
[2]
  EC50: 15400 nM
[2]; [12]
  IC50: 12.6 µM
[3]
  IC50: 28.8 µM
[4]
  concentration needed for 50% growth inhibition (ID50): >31.25 µM
[5]
  IC50: > 31.2 µM
[6]; [13]
  IC50: > 31.2 µM

## CCNCCCCNCC#CCNCCCCNCC [SL-11103]
[1]; Homo sapiens, PC-3, 144 h
  EC50: > 31.2 µM
[1]; [8]
  IC50: > 31.2 µM
[2]; Homo sapiens, DU-145, 144 h
  EC50: 2800 nM
[2]; [9]
  IC50: 2.8 µM
[3]; Homo sapiens
  IC50: 29.4 µM
[4]; Homo sapiens, 144 h
  EC50: 12.4 µM
[4]; Homo sapiens
  IC50: > 31.2 µM
[5]; Homo sapiens, 144 h
  EC50: > 31.2 µM
[5]; Homo sapiens
  IC50: > 31.2 µM
[6]; Homo sapiens, U-251, 144 h
  EC50: 9.5 µM
[6]; [10]
  IC50: 9.5 µM

## CCNCCCCNCc1ccccc1CNCCCCNCC [SL-11104]
[1]; [11]
  IC50: > 31.2 µM
[2]
  EC50: 9400 nM
[2]; [12]
  IC50: 9.4 µM
[3]
  IC50: 25.8 µM
[4]
  concentration needed for 50% growth inhibition (ID50): 0.43 µM
[5]
  IC50: > 31.2 µM
[6]
  EC50: 14.7 µM
[6]; [13]
  IC50: 14.7 µM

## CCNC/C=C\CNC/C=C\CNCCCCNCC [SL-11119]
[1]; [11]
  IC50: > 31.2 µM
[2]
  EC50: 80 nM
[2]; [12]
  IC50: 0.08 µM
[7]; figure legends, survival of cultured DUPRO cells, MTT, six days after drug treatment, read-out: ED50 (the source's name)
  EC50: 440 nM
[7]; read-out: concentration needed for 50% growth inhibition (ID50), Table 3, DUPRO
  IC50: 0.44 µM
[3]
  IC50: 0.97 µM

## CCNCCCCNC/C=C\CNCCCCNCCCCNCC [SL-11122]
[1]; Homo sapiens, PC-3, 144 h
  EC50: > 31.2 µM
[1]; [8]
  IC50: > 31.2 µM
[2]; Homo sapiens, DU-145, 144 h
  EC50: 80 nM
[2]; [9]
  IC50: 0.8 µM
[7]; [14]
  EC50: 560 nM
[7]; [15]
  IC50: 0.56 µM
[3]; Homo sapiens
  IC50: 0.8 µM
[4]; Homo sapiens, 144 h
  EC50: > 31.2 µM
[4]; Homo sapiens
  IC50: > 31.2 µM
[5]; Homo sapiens, 144 h
  EC50: > 31.2 µM
[5]; Homo sapiens
  IC50: > 31.2 µM

## CCNCCCCNC/C=C\CNC/C=C\CNCCCCNCC [SL-11123]
[1]; Homo sapiens, PC-3, 144 h
  EC50: > 31.2 µM
[1]; [8]
  IC50: > 31.2 µM
[2]; Homo sapiens, DU-145, 144 h
  EC50: 510 nM
[2]; [9]
  IC50: 0.51 µM
[7]; [14]
  IC50: > 31.2 µM
[7]; [15]
  IC50: > 31.2 µM
[3]; Homo sapiens
  IC50: 10.4 µM
[4]; Homo sapiens, 144 h
  EC50: > 31.2 µM
[4]; Homo sapiens
  IC50: > 31.2 µM
[5]; Homo sapiens, 144 h
  EC50: > 31.2 µM
[5]; Homo sapiens
  IC50: > 31.2 µM

## CCNC1CCCC1CNCCCNCC1CCCC1NCC (stereo not shown) [SL-11124]
[1]; Homo sapiens, PC-3, 144 h
  EC50: > 31.2 µM
[1]; [8]
  IC50: > 31.2 µM
[2]; Homo sapiens, DU-145, 144 h
  EC50: > 31200 nM
[2]; [9]
  IC50: > 31.2 µM
[7]; [14]
  EC50: > 31200 nM
[7]; [15]
  IC50: > 31.2 µM
[3]; Homo sapiens, HT-29, 144 h
  EC50: > 31.2 µM
[3]; Homo sapiens
  IC50: > 31.2 µM
[4]; Homo sapiens, 144 h
  EC50: > 31.2 µM
[4]; Homo sapiens
  IC50: > 31.2 µM
[5]; Homo sapiens, 144 h
  EC50: > 31.2 µM
[5]; Homo sapiens
  IC50: > 31.2 µM

## CCNC/C=C\CNC/C=C\CNCCCCNCCCCNCC [SL-11127]
[1]; Homo sapiens, PC-3, 144 h
  EC50: > 31.2 µM
[1]; [8]
  IC50: > 31.2 µM
[2]; Homo sapiens, DU-145, 144 h
  EC50: 220 nM
[2]; [9]
  IC50: 0.22 µM
[7]; [14]
  EC50: 1300 nM
[7]; [15]
  IC50: 1.3 µM
[3]; Homo sapiens
  IC50: 2.91 µM

## CCNC/C=C\CNC/C=C\CNCCCCNC/C=C\CNCC [SL-11129]
[1]; Homo sapiens, PC-3, 144 h
  EC50: 1.7 µM
[1]; [8]
  IC50: 1.7 µM
[2]; Homo sapiens, DU-145, 144 h
  EC50: 320 nM
[7]; [14]
  IC50: > 31.2 µM

## CCNC/C=C\CNC/C=C\CNC/C=C\CNCCCCNCC [SL-11130]
[1]; Homo sapiens, PC-3, 144 h
  EC50: > 31.2 µM
[1]; [8]
  IC50: > 31.2 µM
[2]; Homo sapiens, DU-145, 144 h
  EC50: 430 nM
[2]; [9]
  IC50: 0.43 µM
[7]; [14]
  IC50: > 31.2 µM

## CCNCCCNCCCNCC1CCCC1NCC (stereo not shown) [SL-11132]
[1]; Homo sapiens, PC-3, 144 h
  EC50: > 31.2 µM
[2]; Homo sapiens, DU-145, 144 h
  EC50: 15 nM
[7]; [14]
  EC50: > 31200 nM

## CCNC/C=C\CNCCCCNC/C=C\CNCCCCNCC [SL-11133]
[1]; Homo sapiens, PC-3, 144 h
  EC50: > 31.2 µM
[2]; Homo sapiens, DU-145, 144 h
  EC50: 340 nM
[7]; [14]
  IC50: 31.2 µM

## CCNCCCCNCCCCNCCCCNCCCC1=C(C)c2cc3[nH]c(cc4nc(cc5[nH]c(cc1n2)c(CCCNCCCCNCCCCNCCCCNCC)c5C)C(CC)=C4C)c(CC)c3C [SL-11202]
[1]; Homo sapiens, Table 4, PC3, growth by MTT assay, read-out: IC50 (μM) in different cell lines
  IC50: 1.15 µM
[2]; Homo sapiens, Table 4, DU145, growth by MTT assay, read-out: IC50 (μM) in different cell lines
  IC50: 4.6 µM
[7]; Homo sapiens, Table 4, DUPRO, growth by MTT assay, read-out: IC50 (μM) in different cell lines
  IC50: 1.3 µM
